# Measured values reported in patent US20120165310A1, “ETHER DERIVATIVES OF BICYCLIC HETEROARYLS” (NOVARTIS AG, priority 2009, published 2012).
# Molecular target: T1, IGF-1R (Homo sapiens, UniProt P08069)
# T1 construct: expressed in transfected cells; host or cells: Hek293 (Hek293-IGF1R)
# Experiment: Cellular IGF-1R assay: capture ELISA (MSD) of receptor phosphorylation in Hek293 cells
# Format: cell-based
# Details: Hek293-IGF1R cells, 1 h pre-incubation, 10 min IGF stimulation, pIGF1R capture ELISA
# Method in brief: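 IC50 from 4-parameter fit of IGF1R phosphorylation, normalised to IGF-stimulated and unstimulated controls, measured by MSD capture ELISA on lysates. Hek293-IGF1R cells in starvation medium got compound 1 h (top 10 μM, 3-fold steps, 0.1% DMSO) before a 10 min pulse of 1.0 ng/μL IGF.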
# T1 sequence (P08069 31-1367): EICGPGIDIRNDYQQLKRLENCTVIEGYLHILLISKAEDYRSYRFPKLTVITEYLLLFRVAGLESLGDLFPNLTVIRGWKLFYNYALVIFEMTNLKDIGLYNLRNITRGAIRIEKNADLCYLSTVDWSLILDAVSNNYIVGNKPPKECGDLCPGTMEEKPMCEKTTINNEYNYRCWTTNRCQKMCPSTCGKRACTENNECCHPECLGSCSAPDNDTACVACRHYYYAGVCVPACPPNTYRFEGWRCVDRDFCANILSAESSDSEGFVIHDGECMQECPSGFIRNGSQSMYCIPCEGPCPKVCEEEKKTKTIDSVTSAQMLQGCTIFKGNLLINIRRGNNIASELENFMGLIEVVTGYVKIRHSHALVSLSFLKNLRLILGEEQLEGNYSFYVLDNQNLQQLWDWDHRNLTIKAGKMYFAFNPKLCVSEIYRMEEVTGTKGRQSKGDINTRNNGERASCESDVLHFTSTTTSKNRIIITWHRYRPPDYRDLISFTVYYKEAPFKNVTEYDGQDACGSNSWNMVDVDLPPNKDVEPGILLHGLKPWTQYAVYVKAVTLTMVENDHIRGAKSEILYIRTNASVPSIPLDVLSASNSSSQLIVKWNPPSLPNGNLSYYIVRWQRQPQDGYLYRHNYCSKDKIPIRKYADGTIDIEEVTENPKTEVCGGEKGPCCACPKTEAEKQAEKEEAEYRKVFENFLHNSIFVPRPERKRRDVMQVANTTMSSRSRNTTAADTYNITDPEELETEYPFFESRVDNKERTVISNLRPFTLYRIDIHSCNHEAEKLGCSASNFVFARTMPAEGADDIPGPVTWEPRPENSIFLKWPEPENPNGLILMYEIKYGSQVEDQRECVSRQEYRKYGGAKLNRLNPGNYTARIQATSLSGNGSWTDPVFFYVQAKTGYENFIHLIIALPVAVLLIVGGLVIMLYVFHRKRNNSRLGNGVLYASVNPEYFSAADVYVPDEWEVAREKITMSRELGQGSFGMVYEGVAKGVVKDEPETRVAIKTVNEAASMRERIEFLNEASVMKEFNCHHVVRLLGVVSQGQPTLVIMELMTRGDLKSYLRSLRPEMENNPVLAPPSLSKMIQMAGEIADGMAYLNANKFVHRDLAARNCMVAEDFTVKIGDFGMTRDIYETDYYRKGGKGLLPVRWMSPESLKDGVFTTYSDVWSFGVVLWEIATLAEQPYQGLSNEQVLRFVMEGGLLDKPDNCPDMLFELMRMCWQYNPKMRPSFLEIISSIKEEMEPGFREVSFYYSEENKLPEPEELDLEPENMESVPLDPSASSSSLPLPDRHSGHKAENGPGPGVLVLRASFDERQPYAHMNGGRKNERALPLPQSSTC
row,Structure (SMILES),IC50 [nM]
1,"CC1(C)CN(C[C@H]2C[C@@H](n3cc(-c4cccc(OCC5CCCCO5)c4)c4c(N)ncnc43)C2)CCS1(=O)=O (stereo partly drawn) [Example 105, 7-[cis-3-(2,2-Dimethyl-1,1-dioxo-1λ6-thiomorpholin-4-ylmethyl)-cyclobutyl]-5-[3-(tetrahydro-pyran-2-ylmethoxy)-phenyl]-7H-pyrrolo[2,3-d]pyrimidin-4-ylamine]",409
2,CCOC(=O)c1nccn1C[C@H]1C[C@@H](n2cc(-c3cccc(OCC45CCC(CC4)O5)c3)c3c(N)ncnc32)C1 [Example 180],57
3,"Nc1ncnc2c1c(-c1cccc(OC[C@@H]3CCCO3)c1)cn2C1CC2(CNC(=O)O2)C1 (stereo partly drawn) [Example 238, 2-(4-Amino-5-{3-[(S)-1-(tetrahydro-furan-2-yl)methoxy]-phenyl}-pyrrolo[2,3-d]pyrimidin-7-yl)-5-oxa-7-aza-spiro[3.4]octan-6-one]",366
4,"Nc1ncnc2c1c(-c1cccc(OCC3CCCCO3)c1)cn2[C@H]1C[C@@H](CN2CCCC2C(=O)O)C1 (relative stereo) [Example 92, 1-(cis-3-{4-amino-5-[3-(tetrahydro-pyran-2-ylmethoxy)-phenyl]-pyrrolo[2,3-d]pyrimidin-7-yl}-cyclobutylmethyl)-pyrrolidine-2-carboxylic acid]",559
5,"Nc1ncnc2c1c(-c1cccc(OCC34CCC(CC3)O4)c1)cn2C1CC(O)(CN2CCC(O)C2)C1 (single isomer, unassigned) [Example 203]",501
6,"Cn1nnnc1C[C@]1(O)C[C@H](n2cc(-c3cccc(OCC45CCC(CC4)O5)c3)c3c(N)ncnc32)C1 [Example 217, (E)-3-{4-Amino-5-[3-(7-oxa-bicyclo[2.2.1]hept-1-ylmethoxy)-phenyl]-pyrrolo[2,3-d]pyrimidin-7-yl}-1-(1-methyl-1H-tetrazol-5-ylmethyl)-cyclobutanol]",598
7,"NC(=O)[C@@H]1[C@H](O)CCN1C[C@H]1C[C@@H](n2cc(-c3cccc(OCC4CCCO4)c3)c3c(N)ncnc32)C1 (stereo partly drawn) [Example 82, (2S,3R)-1-(cis-3-{4-amino-5-[3-(tetrahydro-furan-2-ylmethoxy)-phenyl]-pyrrolo[2,3-d]pyrimidin-7-yl}-cyclobutylmethyl)-3-hydroxy-pyrrolidine-2-carboxylic acid amide]",205
8,"CC1CCC(COc2cccc(-c3cn(C4CC(CN5CCC5)C4)c4ncnc(N)c34)c2)O1 (single isomer, unassigned) [Example 7, cis-(RR and SS)-7-(3-azetidin-1-ylmethyl-cyclobutyl)-5-[3-(5-methyl-tetrahydro-furan-2-ylmethoxy)-phenyl]-7H-pyrrolo[2,3-d]pyrimidin-4-ylamine]",95 to 117
9,"CS(=O)(=O)N1CCN(C[C@H]2CC[C@@H](n3cc(-c4cccc(OCC56CCC(CC5)O6)c4)c4c(N)ncnc43)CC2)CC1 [Example 137, 5-(3-(7-oxabicyclo[2.2.1]heptan-1-ylmethoxy)phenyl)-7-((1S,4S)-4-((4-(methylsulfonyl)piperazin-1-yl)methyl)cyclohexyl)-7H-pyrrolo[2,3-d]pyrimidin-4-amine]",164
10,"Nc1ncnc2c1c(-c1cccc(OCC34CCC(CC3)O4)c1)cn2C1CCC(c2cnco2)CC1 [Example 150, 5-(3-(7-oxabicyclo[2.2.1]heptan-1-ylmethoxy)phenyl)-7-((1S,4S)-4-(oxazol-5-yl)cyclohexyl)-7H-pyrrolo[2,3-d]pyrimidin-4-amine]",335

# Molecules with a lower IC50, results first:
row,IC50 [nM],Structure (SMILES)
1,39 to 52,"CC1(C)CCC(COc2cccc(-c3cn(C4CC(CN5CC(F)C5)C4)c4ncnc(N)c34)c2)O1 (stereo not drawn) [Example 40, 5-(cis-3-((5,5-dimethyltetrahydrofuran-2-yl)methoxy)phenyl)-7-(3-((3-fluoroazetidin-1-yl)methyl)cyclobutyl)-7H-pyrrolo[2,3-d]pyrimidin-4-amine]"
2,8,"NC(=O)[C@H]1CCCN1C[C@H]1C[C@@H](n2cc(-c3cccc(OCC45CCC(CC4)O5)c3)c3c(N)ncnc32)C1 [Example 75, (R)-1-(cis-3-{4-amino-5-[3-(7-oxa-bicyclo[2.2.1]hept-1-ylmethoxy)-phenyl]-pyrrolo[2,3-d]pyrimidin-7-yl}-cyclobutylmethyl)-pyrrolidine-2-carboxylic acid amide]"
3,12,"NC(=O)[C@@H]1CCCN1C[C@H]1C[C@@H](n2cc(-c3cccc(OCC45CCC(CC4)O5)c3)c3c(N)ncnc32)C1 [Example 68, (S)-1-(cis-3-(4-amino-5-[3-(7-oxa-bicyclo[2.2.1]hept-1-ylmethoxy)-phenyl]-pyrrolo[2,3-d]pyrimidin-7-yl)-cyclobutylmethyl)-pyrrolidine-2-carboxylic acid amide]"
4,35,"CC1(C)CCC(COc2cccc(-c3cn(C4CC(CN5CCC(F)C5)C4)c4ncnc(N)c34)c2)O1 (single isomer, unassigned) [Example 45]"
5,8,"CC1(C(N)=O)CCCN1CC1CC(n2cc(-c3cccc(OCC45CCC(CC4)O5)c3)c3c(N)ncnc32)C1 [Example 101, (S)-1-(((1S,3R)-3-(5-(3-(7-oxabicyclo[2.2.1]heptan-1-ylmethoxy)phenyl)-4-amino-7H-pyrrolo[2,3-d]pyrimidin-7-yl)cyclobutyl)methyl)-2-methylpyrrolidine-2-carboxamide]"
6,4 to 14,"Nc1ncnc2c1c(-c1cccc(OCC34CCC(CC3)O4)c1)cn2C1CC(CN2CCC[C@H]2CO)C1 (stereo partly drawn) [Example 25, [(S)-1-(3-{4-amino-5-[3-(7-oxa-bicyclo[2.2.1]hept-1-ylmethoxy)-phenyl]-pyrrolo[2,3-d]pyrimidin-7-yl}-cyclobutylmethyl)-pyrrolidin-2-yl]-methanol]"
7,36,"CN1CCN([C@H]2CC[C@@H](n3cc(-c4cccc(OC[C@@H]5CCC(C)(C)O5)c4)c4c(N)ncnc43)CC2)CC1 [Example 119, 5-(3-(((S)-5,5-dimethyltetrahydrofuran-2-yl)methoxy)phenyl)-7-((1S,4S)-4-(4-methylpiperazin-1-yl)cyclohexyl)-7H-pyrrolo[2,3-d]pyrimidin-4-amine]"
8,44,"Nc1ncnc2c1c(-c1cccc(OCC34CCC(CC3)O4)c1)cn2C1CC(N2CCN(CCO)CC2)C1 (stereo not shown) [Example 170, 2-[4-(3-{4-amino-5-[3-(7-oxa-bicyclo[2.2.1]hept-1-ylmethoxy)-phenyl]-pyrrolo[2,3-d]pyrimidin-7-yl}-cyclobutyl)-piperazin-1-yl]-ethanol]"
9,15,"CC1(C)CCC(COc2cccc(-c3cn(C4CC(CN5CCC(F)C5)C4)c4ncnc(N)c34)c2)O1 (single isomer, unassigned) [Example 46]"
10,6,"Nc1ncnc2c1c(-c1cccc(OCC34CCC(CC3)O4)c1)cn2[C@H]1C[C@@H](CN2C3CCC2CC(O)C3)C1 (stereo partly drawn) [Example 185, 8-(cis-3-{4-Amino-5-[3-(7-oxa-bicyclo[2.2.1]hept-1-ylmethoxy)-phenyl]-pyrrolo[2,3-d]pyrimidin-7-yl}-cyclobutylmethyl)-8-aza-bicyclo[3.2.1]octan-(3-exo)-ol]"
11,50,"CC1(C)CCC(COc2cccc(-c3cn([C@H]4C[C@@H](CN5CC[C@@H](O)C5)C4)c4ncnc(N)c34)c2)O1 (stereo partly drawn) [Example 58, (R)-1-(cis-3-{4-amino-5-[3-(5,5-dimethyl-tetrahydro-furan-2-ylmethoxy)-phenyl]-pyrrolo[2,3-d]pyrimidin-7-yl}cyclobutylmethyl)-pyrrolidin-3-ol]"
12,45,Nc1ncnc2c1c(-c1cccc(OCC34CCC(CC3)O4)c1)cn2[C@H]1CC[C@@H](CN2CCOCC2)CC1 [Example 130]
